Measurements from PubChem BioAssay (NCI).
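All cell lines were grown in 96-well plates and treated with compound for 48 hours. At the TGI there is no net growth.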

Test system: SF-295 CNS
Test: inhibition of tumour cell growth, NCI panel, 48 h

Compound	TGI
Cc1c(-c2nc(N)nc(C3CC3)c2C)nc(N)nc1C1CC1	> 100 µM
CC(C)(C)OC(=O)c1ccc(NCc2cc(O)ccc2O)cc1	29.3 µM
COc1cc(/C=C/C(=O)O)ccc1OS(=O)(=O)O	> 100 µM
COc1ccc2c(c1)[C@@]13CCN4CC5=CCO[C@H]6CC(=O)N2[C@H]1[C@H]6[C@H]5C[C@H]43	> 100 µM
CCC1C(=O)OCc2c1cc1n(c2=O)CCC12OCCO2 (configuration not stated)	> 100 µM
NC(=O)NC(=NCc1ccccc1)NCc1ccccc1	> 100 µM
O=C1NC(=S)S/C1=C/c1ccco1	> 100 µM

Test system: A549 NSCLC
Test: inhibition of tumour cell growth, NCI panel, 48 h

Compound	TGI
Cc1c(-c2nc(N)nc(C3CC3)c2C)nc(N)nc1C1CC1	> 100 µM
CC(C)(C)OC(=O)c1ccc(NCc2cc(O)ccc2O)cc1	> 89.4 µM
COc1cc(/C=C/C(=O)O)ccc1OS(=O)(=O)O	> 100 µM
COc1ccc2c(c1)[C@@]13CCN4CC5=CCO[C@H]6CC(=O)N2[C@H]1[C@H]6[C@H]5C[C@H]43	> 100 µM
CCC1C(=O)OCc2c1cc1n(c2=O)CCC12OCCO2 (configuration not stated)	> 100 µM
NC(=O)NC(=NCc1ccccc1)NCc1ccccc1	> 100 µM
O=C1NC(=S)S/C1=C/c1ccco1	> 100 µM

Test system: OVCAR-3 ovarian
Test: inhibition of tumour cell growth, NCI panel, 48 h

Compound	TGI
Cc1c(-c2nc(N)nc(C3CC3)c2C)nc(N)nc1C1CC1	> 100 µM
CC(C)(C)OC(=O)c1ccc(NCc2cc(O)ccc2O)cc1	3.9 µM
COc1cc(/C=C/C(=O)O)ccc1OS(=O)(=O)O	> 100 µM
COc1ccc2c(c1)[C@@]13CCN4CC5=CCO[C@H]6CC(=O)N2[C@H]1[C@H]6[C@H]5C[C@H]43	> 100 µM
NC(=O)NC(=NCc1ccccc1)NCc1ccccc1	> 100 µM
O=C1NC(=S)S/C1=C/c1ccco1	> 100 µM

Test system: M14 melanoma
Test: inhibition of tumour cell growth, NCI panel, 48 h

Compound	TGI
Cc1c(-c2nc(N)nc(C3CC3)c2C)nc(N)nc1C1CC1	> 100 µM
CC(C)(C)OC(=O)c1ccc(NCc2cc(O)ccc2O)cc1	7.35 µM
COc1cc(/C=C/C(=O)O)ccc1OS(=O)(=O)O	> 100 µM
COc1ccc2c(c1)[C@@]13CCN4CC5=CCO[C@H]6CC(=O)N2[C@H]1[C@H]6[C@H]5C[C@H]43	> 100 µM
CCC1C(=O)OCc2c1cc1n(c2=O)CCC12OCCO2 (configuration not stated)	> 100 µM
NC(=O)NC(=NCc1ccccc1)NCc1ccccc1	> 100 µM
O=C1NC(=S)S/C1=C/c1ccco1	> 100 µM

Test system: SK-MEL-5 melanoma
Test: inhibition of tumour cell growth, NCI panel, 48 h

Compound	TGI
Cc1c(-c2nc(N)nc(C3CC3)c2C)nc(N)nc1C1CC1	> 100 µM
CC(C)(C)OC(=O)c1ccc(NCc2cc(O)ccc2O)cc1	13.1 µM
COc1cc(/C=C/C(=O)O)ccc1OS(=O)(=O)O	> 100 µM
COc1ccc2c(c1)[C@@]13CCN4CC5=CCO[C@H]6CC(=O)N2[C@H]1[C@H]6[C@H]5C[C@H]43	> 100 µM
CCC1C(=O)OCc2c1cc1n(c2=O)CCC12OCCO2 (configuration not stated)	> 100 µM
NC(=O)NC(=NCc1ccccc1)NCc1ccccc1	> 100 µM
O=C1NC(=S)S/C1=C/c1ccco1	> 100 µM

Test system: HCC-2998 colon
Test: inhibition of tumour cell growth, NCI panel, 48 h

Compound	TGI
Cc1c(-c2nc(N)nc(C3CC3)c2C)nc(N)nc1C1CC1	> 100 µM
CC(C)(C)OC(=O)c1ccc(NCc2cc(O)ccc2O)cc1	22.1 µM
COc1cc(/C=C/C(=O)O)ccc1OS(=O)(=O)O	> 100 µM
COc1ccc2c(c1)[C@@]13CCN4CC5=CCO[C@H]6CC(=O)N2[C@H]1[C@H]6[C@H]5C[C@H]43	> 100 µM
CCC1C(=O)OCc2c1cc1n(c2=O)CCC12OCCO2 (configuration not stated)	> 100 µM
NC(=O)NC(=NCc1ccccc1)NCc1ccccc1	> 100 µM
O=C1NC(=S)S/C1=C/c1ccco1	> 100 µM

Test system: DLD-1 colon
Test: inhibition of tumour cell growth, NCI panel, 48 h

Compound	TGI
CCC1C(=O)OCc2c1cc1n(c2=O)CCC12OCCO2 (configuration not stated)	> 100 µM
NC(=O)NC(=NCc1ccccc1)NCc1ccccc1	> 100 µM
O=C1NC(=S)S/C1=C/c1ccco1	> 100 µM

Test system: HCT-15 colon
Test: inhibition of tumour cell growth, NCI panel, 48 h

Compound	TGI
Cc1c(-c2nc(N)nc(C3CC3)c2C)nc(N)nc1C1CC1	> 100 µM
CC(C)(C)OC(=O)c1ccc(NCc2cc(O)ccc2O)cc1	3.12 µM
COc1cc(/C=C/C(=O)O)ccc1OS(=O)(=O)O	> 100 µM
